Experimental data published in patent publication US20170210778A1, “NOVEL COMPOUNDS” (The Provost, Fellows, Foundation Scholars, and the other …, priority 2014, published 2017).

Key:
murine NOD1 = target: T1, murine NOD1 (Mus musculus, UniProt Q8BHB0); test: NOD1 functional agonist assay, 293mNOD1-SEAP reporter cells; type: cell-based; details: 293mNOD1 cells, OD above 3*O.D of negative control
T1 construct: expressed in transfected cells; host or cells: HEK293
T1 sequence (Q8BHB0 1-953): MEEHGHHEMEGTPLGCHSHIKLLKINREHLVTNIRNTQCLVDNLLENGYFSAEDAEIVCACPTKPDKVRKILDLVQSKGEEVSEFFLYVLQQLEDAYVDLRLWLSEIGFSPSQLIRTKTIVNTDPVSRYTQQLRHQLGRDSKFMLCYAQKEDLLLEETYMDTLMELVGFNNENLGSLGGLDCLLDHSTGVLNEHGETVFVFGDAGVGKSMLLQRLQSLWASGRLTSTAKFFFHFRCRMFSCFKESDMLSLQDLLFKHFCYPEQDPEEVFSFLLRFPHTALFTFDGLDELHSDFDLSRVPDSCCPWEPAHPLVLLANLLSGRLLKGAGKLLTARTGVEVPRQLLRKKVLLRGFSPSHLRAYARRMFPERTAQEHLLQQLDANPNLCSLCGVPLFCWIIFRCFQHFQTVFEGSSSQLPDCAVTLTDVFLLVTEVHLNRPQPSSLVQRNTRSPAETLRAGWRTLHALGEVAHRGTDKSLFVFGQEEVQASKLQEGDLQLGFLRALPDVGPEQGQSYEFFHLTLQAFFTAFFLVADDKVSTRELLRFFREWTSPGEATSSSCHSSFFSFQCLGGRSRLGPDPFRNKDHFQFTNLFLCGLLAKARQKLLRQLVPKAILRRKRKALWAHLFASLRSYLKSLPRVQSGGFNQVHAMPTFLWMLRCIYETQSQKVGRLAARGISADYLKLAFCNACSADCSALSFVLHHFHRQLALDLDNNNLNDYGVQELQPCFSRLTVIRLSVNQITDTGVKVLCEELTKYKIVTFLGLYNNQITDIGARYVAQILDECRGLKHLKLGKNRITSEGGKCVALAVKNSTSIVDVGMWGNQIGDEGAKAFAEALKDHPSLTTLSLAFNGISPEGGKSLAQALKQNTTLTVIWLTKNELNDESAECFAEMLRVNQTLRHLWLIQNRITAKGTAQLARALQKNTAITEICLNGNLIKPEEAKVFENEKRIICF
In short: (§1)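 Stably transfected HEK293 cells overexpressing human or murine NOD1 with an NF-κB/AP-1-inducible SEAP reporter; secreted SEAP detected colorimetrically, absorbance read at 620/655 nm. Value is the lowest concentration giving mean OD above 3× the endotoxin-free water negative control; parental 293 SEAP cells lacking NOD1 served as counter-control.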

PEC = test: IL-10 production by PEC in vitro; type: cell-based; details: 24 h stimulation, FIG. 1A
EAE in C57BL/6 mice = test: Experimental Autoimmune Encephalomyelitis (EAE) model; type: in vivo; details: treated mice; FIG. 1C
Excerpt: EAE is induced in C57BL/6 mice by immunization with an emulsion of MOG35-55 or MOG1-125 in complete Freund's adjuvant (CFA), followed by administration of pertussis toxin (PT) in PBS, first on the day of immunization and then again the following day.

human NOD1 = target: T2, human NOD1 (Homo sapiens, UniProt Q9Y239); test: NOD1 functional agonist assay, 293hNOD1-SEAP reporter cells; type: cell-based; details: 293hNOD1 cells, OD above 3*O.D of negative control
T2 construct: expressed in transfected cells; host or cells: HEK293
T2 sequence (Q9Y239 1-953): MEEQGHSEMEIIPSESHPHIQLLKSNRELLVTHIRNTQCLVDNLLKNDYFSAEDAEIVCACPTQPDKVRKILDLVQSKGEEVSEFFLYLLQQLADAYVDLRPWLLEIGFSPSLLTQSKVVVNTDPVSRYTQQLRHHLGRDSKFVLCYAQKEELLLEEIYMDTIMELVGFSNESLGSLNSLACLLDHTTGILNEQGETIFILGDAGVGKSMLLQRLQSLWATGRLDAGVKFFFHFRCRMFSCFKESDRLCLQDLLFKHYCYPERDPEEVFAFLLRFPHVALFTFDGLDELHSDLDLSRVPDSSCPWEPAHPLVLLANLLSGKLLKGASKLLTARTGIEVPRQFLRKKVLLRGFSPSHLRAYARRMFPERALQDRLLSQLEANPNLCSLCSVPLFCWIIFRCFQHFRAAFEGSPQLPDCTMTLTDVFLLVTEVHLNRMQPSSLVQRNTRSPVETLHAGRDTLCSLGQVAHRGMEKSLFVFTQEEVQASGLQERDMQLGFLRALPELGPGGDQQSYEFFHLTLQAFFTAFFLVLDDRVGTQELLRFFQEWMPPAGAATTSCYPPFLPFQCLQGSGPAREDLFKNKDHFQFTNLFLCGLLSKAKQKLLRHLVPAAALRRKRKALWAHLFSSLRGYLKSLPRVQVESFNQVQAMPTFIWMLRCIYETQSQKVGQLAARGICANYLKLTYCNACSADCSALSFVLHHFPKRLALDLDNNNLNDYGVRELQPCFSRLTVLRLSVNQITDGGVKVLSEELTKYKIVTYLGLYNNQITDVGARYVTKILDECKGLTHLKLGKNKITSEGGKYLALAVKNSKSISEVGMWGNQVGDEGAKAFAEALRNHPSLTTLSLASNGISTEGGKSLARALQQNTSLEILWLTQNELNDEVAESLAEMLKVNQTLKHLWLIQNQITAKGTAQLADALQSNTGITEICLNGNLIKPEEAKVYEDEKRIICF
In short: as §1

[1] = tested on: LPM in the peritoneal cavity; test: Numbers of LPM in the peritoneal cavity after i.p. injection; type: in vivo; details: injected i.p. into mice; FIG. 1B
DSS-induced colitis = test: Dextran Sulfate Sodium (DSS)-induced colitis mouse model; type: in vivo, mice; details: 2% DSS in drinking water 7 days; 25 μg i.p. on days 0, 1, 2, 4 and 6; FIG. 3
Experimental: As provides in FIG. 3, mice were given water or 2% DSS in their drinking water for 7 days and were treated i.p. with either PBS, vehicle or 25 μg compound of Example 29 (Ex.29) on days 0, 1, 2, 4 and 6 of the experiment. (3A) Body weights were recorded daily. (3B) Mice were sacrificed on day 7 and colon lengths were measured (mean±SE; n=6). (3C) Total mRNA were extracted from the colons on day 7 and the relative expression (RE) of the M2 macrophage markers Relma, and the M1 macrophage markers Ptgs2 (Cox2) and Nos2 were quantified by qPCR (mean±SE; n=6). *, P<0.05; and **, P<0.01 versus DSS+vehicle treated mice.

[2] = tested on: DSS-induced inflammation in the colon; test: DSS-induced inflammation in the colon model; type: in vivo, mice; details: 2% DSS in drinking water 7 days; 25 μg i.p. on days 0, 1, 2, 4 and 6; FIG. 4
Experimental: Mice were given water or 2% DSS in their drinking water for 7 days and were treated i.p. with either PBS, vehicle or 25 μg compound of Example 29 (Ex.29) on days 0, 1, 2, 4 and 6 of the experiment. Mice were sacrificed on day 7 and colon sections were prepared and stained with H&E.
Arrows indicate areas of severe inflammatory pathology.

CCCCCCCCCCCCCC(=O)N[C@@H](C)C(=O)N[C@H](CCC(=O)N[C@H](CSC[C@H](N)C(=O)O)C(=O)NCC(=O)O)C(=O)O [Example 29, N^5-((S)-3-(((R)-2-amino-2-carboxyethyl)thio)-1-((carboxymethyl)amino)-1-oxopropan-2-yl)-N^2-(tetradecanoyl-L-alanyl)-D-glutamine]
mNod1: concentration where a significant mean optical density (OD) can be observed (murine NOD1): 0.001 µg/mL | production of IL-10 by PEC (PEC): induced the production of significant concentrations of IL-10 | EAE-associated weight loss (EAE in C57BL/6 mice): prevented associated weight loss | clinical course of EAE (EAE in C57BL/6 mice): significantly attenuated | hNod1: concentration where a significant mean optical density (OD) can be observed (human NOD1): 0.0001 µg/mL | numbers of LPM in the peritoneal cavity [1]: significantly increased | protection against DSS-induced colitis (DSS-induced colitis): protects mice against DSS-induced colitis | protection against DSS-induced inflammation in the colon [2]: protects mice against DSS-induced inflammation in the colon
